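These data come from cells grown in 96-well plates and exposed to compound for 48 hours at five concentrations. GI50 is the concentration that inhibits growth by half. TGI marks complete inhibition of growth.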 Some results are limits rather than exact numbers.

Our source for the TGI and GI50 values is PubChem BioAssay (NCI).

Some test systems named below: ACHN renal; DMS 114 small cell lung; EKVX NSCLC; HOP-18 NSCLC; KM20L2 colon; LXFL 529 NSCLC; SF-295 CNS; 786-0 renal; HOP-62 NSCLC; MDA-MB-231 breast; NCI/ADR-RES ovarian; PC-3 prostate; SR leukemia.
Assay in all cases: NCI tumour cell line growth inhibition, 48 h

For the compound `COc1cc2c(cc1OC)C(Cl)C(c1ccc(Cl)cc1)=C2Cl` (stereo unspecified), the TGI was found to be 30.1 µM with ACHN renal; 28.6 µM with DMS 114 small cell lung; 59.7 µM with EKVX NSCLC; 31.7 µM in the assay with HOP-18 NSCLC; 39.5 µM in the assay with KM20L2 colon; 17.5 µM in the assay on LXFL 529 NSCLC. This compound also displayed a TGI in the assay on SF-295 CNS of 30 µM.
Regarding `O=C(c1cc(Br)ccc1O)c1cc(Br)ccc1O`, the TGI in the assay on 786-0 renal worked out at 30.6 µM; with ACHN renal, 29.9 µM; in the assay with EKVX NSCLC, 30.3 µM; in the assay with HOP-62 NSCLC, 34.3 µM; in the assay with MDA-MB-231 breast, 33.5 µM; with NCI/ADR-RES ovarian, 44.7 µM. The TGI came out at 30.8 µM in the assay on PC-3 prostate and 33.7 µM with SF-295 CNS.
Take `COc1ccc(CNc2nc(NCc3ccc(OC)cc3)nc(NC(C)C)n2)cc1`: the TGI was 32.9 µM with 786-0 renal; 59.1 µM in the assay on ACHN renal; 93.2 µM in the assay with EKVX NSCLC; 37.5 µM with HOP-62 NSCLC; 18.9 µM in the assay with NCI/ADR-RES ovarian; 23.9 µM in the assay on PC-3 prostate. The TGI with SF-295 CNS and with SR leukemia was > 100 µM each time.
`c1ccc2c[n+](CCCCCCCCCC[n+]3ccc4ccccc4c3)ccc2c1`: the TGI with 786-0 renal, with ACHN renal, with EKVX NSCLC, in the assay on HOP-62 NSCLC, with MDA-MB-231 breast and in the assay on NCI/ADR-RES ovarian was > 10 µM throughout. For the same compound, the TGI with PC-3 prostate, in the assay with SF-295 CNS and in the assay with SR leukemia was > 10 µM throughout.
For `O=C(CSCC(=O)N/N=C/c1cccc(OCc2ccccc2)c1)N/N=C/c1cccc(OCc2ccccc2)c1`, the TGI in the assay on 786-0 renal, in the assay on ACHN renal, in the assay on EKVX NSCLC, in the assay with HOP-62 NSCLC, in the assay on MDA-MB-231 breast and in the assay with NCI/ADR-RES ovarian was > 100 µM in each case. Further, the values for the TGI in the assay on PC-3 prostate and in the assay with SF-295 CNS were 97.8 µM and > 100 µM, respectively.
Take `Cc1c2ccnc(-c3ccccc3)c2cc2c1[nH]c1ccccc12`: the TGI in the assay with DMS 114 small cell lung came out at 4.82 µM; in the assay with EKVX NSCLC it was 12.5 µM; with HOP-18 NSCLC it was 8.67 µM; in the assay on HOP-62 NSCLC, 6.61 µM; in the assay with KM20L2 colon it was 6.8 µM; with NCI/ADR-RES ovarian it was 6.36 µM. The compound also yielded a TGI in the assay on SF-295 CNS of 5.45 µM.
For `C[C@@H]1CC[C@H]2C(COC/C=C/COCC3=C(C(F)(F)F)O[C@@H]4O[C@@]5(C)CC[C@H]6[C@H](C)CC[C@@H]3[C@@]46OO5)=C(C(F)(F)F)O[C@@H]3O[C@@]4(C)CC[C@@H]1[C@]32OO4`, the TGI is > 100 µM with 786-0 renal; 0.753 µM in the assay with ACHN renal; > 100 µM in the assay with EKVX NSCLC; > 100 µM in the assay on HOP-62 NSCLC; 0.865 µM in the assay on MDA-MB-231 breast; > 71.3 µM in the assay on NCI/ADR-RES ovarian. Moreover, the GI50 with ACHN renal was 0.0468 µM; in the assay with EKVX NSCLC, 0.072 µM; in the assay with MDA-MB-231 breast, < 0.0416 µM; with NCI/ADR-RES ovarian, 3.14 µM; with PC-3 prostate, < 0.01 µM; in the assay on SF-295 CNS it was < 0.0244 µM.
Take `C[n+]1cccc(/C=C/c2ccc3cccc(O)c3n2)c1`: the TGI in the assay on 786-0 renal, in the assay with ACHN renal, with EKVX NSCLC, in the assay on HOP-62 NSCLC, in the assay with MDA-MB-231 breast and in the assay on NCI/ADR-RES ovarian was > 100 µM throughout. The TGI with PC-3 prostate, with SF-295 CNS and in the assay with SR leukemia was > 100 µM throughout.
Take `CCOC(=O)N1c2ccccc2S(=O)(=O)c2ccccc21`: the TGI in the assay on 786-0 renal, with ACHN renal, with EKVX NSCLC, with HOP-62 NSCLC, in the assay on MDA-MB-231 breast and with NCI/ADR-RES ovarian was > 100 µM throughout. Moreover, the TGI with PC-3 prostate and in the assay with SF-295 CNS was > 100 µM in each case.
`Cc1ccc(C)c(/C(=N\N=C(N)N)C2CC2)c1`: the TGI in the assay with 786-0 renal, in the assay with ACHN renal, with EKVX NSCLC, in the assay on HOP-62 NSCLC, with MDA-MB-231 breast and with NCI/ADR-RES ovarian was > 100 µM throughout. Further, the TGI in the assay with PC-3 prostate, in the assay with SF-295 CNS and in the assay with SR leukemia was > 100 µM throughout.
For the compound `CCOC(=O)c1c2c(c(O)c3ccccc3c(O)n(-c3ccc(C)cc3)c1C)C(=O)C=CC2=O`, the TGI came out at 33.5 µM in the assay on 786-0 renal; 38.4 µM with ACHN renal; 85.5 µM in the assay with EKVX NSCLC; 61.7 µM with HOP-62 NSCLC; 55.7 µM with MDA-MB-231 breast; 48.7 µM in the assay on NCI/ADR-RES ovarian. Further, the TGI in the assay with PC-3 prostate was > 100 µM; in the assay on SF-295 CNS, 37 µM.
With `Cc1ncc(CO)c(CN)c1O`, the TGI in the assay on 786-0 renal, in the assay with ACHN renal, in the assay with EKVX NSCLC, in the assay with HOP-62 NSCLC, in the assay with MDA-MB-231 breast and in the assay on NCI/ADR-RES ovarian was > 100 µM throughout. Further, the TGI in the assay on PC-3 prostate and with SF-295 CNS was > 100 µM in each case.
Take `CN(C)CCNC(=O)c1cccc2nc3c4ccccc4c4ccccc4c3nc12`: the TGI in the assay on ACHN renal amounted to 12.4 µM; in the assay with EKVX NSCLC it was 11 µM; in the assay on HOP-18 NSCLC it was 20.1 µM; with HOP-62 NSCLC it was 34.2 µM; in the assay on KM20L2 colon, 10.3 µM; in the assay with LXFL 529 NSCLC, 10.1 µM. In addition, the TGI with MDA-MB-231 breast was 3.32 µM; in the assay on PC-3 prostate, 3.05 µM; in the assay on SF-295 CNS, 10.1 µM; in the assay on SR leukemia it was 13 µM.
With `N=C(N)c1ccc(-c2ccc(-c3ccc(Cl)cn3)s2)cc1`, the GI50 in the assay on ACHN renal is 1.61 µM; with MDA-MB-231 breast it was 1.58 µM; in the assay on PC-3 prostate it was 1.65 µM. In addition, the TGI in the assay on ACHN renal was determined as 2.96 µM; in the assay on MDA-MB-231 breast it was 3.02 µM; in the assay on PC-3 prostate it was 3.17 µM.
In the case of `O=C(O)c1ccccn1`, the TGI with 786-0 renal, in the assay with ACHN renal, with EKVX NSCLC, in the assay with HOP-62 NSCLC, in the assay on MDA-MB-231 breast and in the assay with NCI/ADR-RES ovarian was > 100 µM in each case. The TGI in the assay with PC-3 prostate, in the assay on SF-295 CNS and with SR leukemia was > 100 µM in each case.
On to `O=C(CC1(O)C(=O)Nc2ccc(Br)cc21)c1ccc(C(=O)NCC2CCC3(CC2)OOC2(CCCCC2)OO3)cc1` (stereo unspecified), for which the GI50 is 2.02 µM with ACHN renal; 11 µM in the assay with HOP-62 NSCLC; 5.96 µM in the assay with MDA-MB-231 breast; 15.1 µM with NCI/ADR-RES ovarian; 2.64 µM with PC-3 prostate; 7.1 µM in the assay on SF-295 CNS. In addition, the TGI in the assay with ACHN renal stood at 5.38 µM; with HOP-62 NSCLC it was 40.7 µM; with MDA-MB-231 breast it was 37.1 µM; in the assay with NCI/ADR-RES ovarian, 69.3 µM; in the assay on PC-3 prostate, 22.3 µM; in the assay with SF-295 CNS it was 35 µM.
With `CN(C)c1ccc(C2CC(=O)C(C#N)=C(c3ccccc3)NN2C)cc1` (stereo unspecified), the TGI in the assay with ACHN renal was > 100 µM; with DMS 114 small cell lung, > 100 µM; in the assay with HOP-18 NSCLC, > 100 µM; in the assay with HOP-62 NSCLC it was 62.5 µM; in the assay on LXFL 529 NSCLC, > 100 µM; with SF-295 CNS, > 100 µM. For the same compound, the TGI with SR leukemia is > 100 µM.
As for `CC(C)(C)C1CCC2(CC1)CCN(CCCN1CCOCC1)CC2`, the TGI is 51 µM with 786-0 renal; > 100 µM in the assay with ACHN renal; 33.9 µM in the assay on DMS 114 small cell lung; > 100 µM with EKVX NSCLC; > 57.8 µM in the assay with HOP-62 NSCLC; 5.24 µM in the assay with KM20L2 colon. The TGI was 21.5 µM with LXFL 529 NSCLC; > 100 µM with MDA-MB-231 breast; > 100 µM with NCI/ADR-RES ovarian; > 100 µM with PC-3 prostate; > 61.7 µM in the assay on SF-295 CNS; > 100 µM in the assay with SR leukemia.
Consider `CC(C)CNc1nc(N)[nH]c(=O)c1NC=O`, for which the TGI with 786-0 renal, in the assay with ACHN renal, in the assay on EKVX NSCLC, with HOP-62 NSCLC, in the assay with MDA-MB-231 breast and in the assay on NCI/ADR-RES ovarian was > 100 µM throughout. Also, the TGI in the assay with PC-3 prostate and in the assay with SF-295 CNS was > 100 µM throughout.
Turning to `COc1cnc2c(c1)C(=O)c1c-2n(CCCN2CCNCC2)c(=O)c2cc(Cl)ccc12`, in the assay with ACHN renal, the GI50 was 0.181 µM and the TGI amounted to 1.27 µM.
In the case of `CN(C)[C@@H]1C(=O)C(C(=O)NCNCCCC(=O)O)=C(O)[C@@]2(O)C(=O)C3=C(O)c4c(O)cccc4[C@@](C)(O)[C@H]3C[C@@H]12`, the TGI with 786-0 renal, in the assay on ACHN renal, in the assay with DMS 114 small cell lung, in the assay with EKVX NSCLC, in the assay with HOP-18 NSCLC and in the assay on HOP-62 NSCLC was > 100 µM in each case. Moreover, the TGI in the assay with KM20L2 colon, with LXFL 529 NSCLC, in the assay with SF-295 CNS and with SR leukemia was > 100 µM in each case.
Consider `COc1cc2ccc1-c1cc(ccc1O)CC1c3cc4c(cc3CCN1C)Oc1c(OC)cc3c(c1O4)C(C2)N(C)CC3` (stereo unspecified), for which the TGI with 786-0 renal turned out to be 3.15 µM; with ACHN renal, 3.74 µM; in the assay with DMS 114 small cell lung it was 3.48 µM; in the assay with EKVX NSCLC it was 4.57 µM; in the assay on HOP-62 NSCLC, 3.65 µM; in the assay on KM20L2 colon, 2.97 µM. In addition, the TGI worked out at 3.23 µM in the assay on LXFL 529 NSCLC, 3.33 µM with SF-295 CNS and 4 µM with SR leukemia.
For the compound `Oc1cc(O)cc(/C=C/c2ccc(O)c(O)c2)c1`, the TGI is 22.1 µM in the assay with DMS 114 small cell lung; > 100 µM with EKVX NSCLC; > 100 µM with HOP-18 NSCLC; 28.7 µM in the assay on HOP-62 NSCLC; 86.1 µM with KM20L2 colon; 51 µM in the assay with NCI/ADR-RES ovarian. In the assay on SF-295 CNS, this compound had a TGI of 60 µM.
Take `NCS(=O)(=O)O`: the TGI in the assay on 786-0 renal, in the assay with ACHN renal, in the assay with EKVX NSCLC, in the assay on HOP-62 NSCLC, in the assay on MDA-MB-231 breast and in the assay on NCI/ADR-RES ovarian was > 100 µM throughout. Further, the TGI in the assay on PC-3 prostate and in the assay on SF-295 CNS was > 100 µM in each case.
